Where “and” joins values, the source holds several entries; their conditions need not be identical. Equal entries are not always repeated.
Key:
NF-κB activation = experiment: NF-κB firefly luciferase reporter assay, TNF-α-stimulated stably transfected HEK293 cells; type: cell-based, human; details: TNF-α 10 ng/ml 3 h, vehicle = 100, single experiments; for NF-κB luciferase activity normalized to vehicle: Fig 2C, derivatives at 100 μM; for NF-κB luciferase activity normalized to untreated stimulated control: Fig 2A, 100 μM, 30 min pretreatment
Description: To determine whether the small molecules identified by the in silico screening inhibit NF-κB activation, a HEK293 cell line stably expressing a luciferase reporter driven by a synthetic, NF-κB-dependent promoter was utilized. To induce NF-κB activation, cells were treated with 10 ng/mL of TNF-α and harvested 3 h post treatment for analysis of luciferase activity. […] To determine whether ZINC12909780 inhibits NF-κB in a dose-dependent manner, concentrations were tested at 0, 6.25, 25, 50, and 100 μM.
Luciferase activity was normalized to untreated stimulated control cells. […] Cell viability was calculated by normalizing to untreated cells. […] Underlying data can be found in S1 Data.
HEK293 cells stably transfected with luciferase reporter plasmid driven by NF-κB were seeded in 96-well plates in triplicate and pretreated with DMSO or varying small molecules at indicated concentration for 30 min, followed by the stimulation of 10 ng/ml of TNF-α for 3 h. Cells were washed with PBS once and harvested in Passive Lysis Buffer (Promega, Madison, WI). Luciferase assay (Promega) was performed by using a luminometer according to the manufacturer’s instructions.

NF-κB target genes = experiment: qRT-PCR of NF-κB target genes in LPS-stimulated Raw 264.7 cells; type: cell-based, mouse; details: Fig 4C, LPS 1 μg/ml 2 h, IKKi VII 2 μM, 8K-NBD 200 μM, SR compounds 50 μM, relative to no LPS
IL-6 production = experiment: Mouse IL-6 ELISA of supernatant of LPS-stimulated Raw 264.7 cells; type: cell-based; details: Fig 4D; IKKi VII 2 μM; LPS 1 μg/ml 24 h
Description: Fig 4 Modified lead NBD mimetics inhibit TNF-α- and LPS-induced NF-κB activation by disrupting the association between NEMO and IKKβ. (A) Structures of top NBD mimetics. (B) Measurement of NF-κB activation in response to TNF-α by using Dual-luciferase reporter assays. HEK293 cells cotransfected with NF-κB luciferase reporter and SV40-Renilla plasmids were pretreated with DMSO or listed small molecules at 0, 25, 50, 100, and 150 μM for 30 min, followed by the induction of TNF-α for 3 h. Data shown are representative of 2–3 independent experiments. […] Raw 264.7 cells were pretreated with indicated drugs for 30 min and then stimulated with 1 μg/ml of LPS for 2 h. Cells were then harvested for RNA extraction and qRT-PCR analysis. Drug concentrations used are as follows: IKKi VII (2 μM), 8K-NBD peptide (200 μM), SR12343 (50 μM), SR12460 (50 μM), SR12454 (50 μM), and SR11481 (50 μM). Data are representative of 2 independent experiments. […] Raw 264.7 cells pretreated with DMSO or drugs at indicated concentrations were exposed to 1 μg/ml of LPS for 24 h, and supernatant was collected for ELISA analysis of mouse IL-6. *P < 0.05; **P < 0.01. Underlying data can be found in S1 Data. HEK293, human embryonic kidney 293 cells; IKK, IκB kinase; IL-6, interleukin 6; LPS, lipopolysaccharide; NBD, NEMO-binding domain; n.d., nondetectable; NEMO, NF-κB essential modulator; NF-κB, nuclear factor κB; qRT-PCR, […] real-time polymerase chain reaction; TNF-α; tumor necrosis factor α. TEXT PRINTED IN THE PICTURE: (D) ikki VII: mIL-6 (ng/ml): n.d. | (D) SR12460: mIL-6 (ng/ml): n.d. (50μM) | (D) SR12454: mIL-6 (ng/ml): n.d. (50μM) DOUBTS OF THE COPYIST ABOUT THIS PICTURE: Panel D: the only printed results are the three "n.d." labels. They stand in place of bars and are assigned to ikki VII, SR12460 50μM and SR12454 50μM by their position on the axis. All other results are shown only as bars, with no printed numbers.
To confirm the qRT-PCR results, the levels of IL-6 production in Raw 264.7 cells activated by LPS were analyzed by ELISA.
Raw 264.7 cells were grown in 96-well plates and pretreated with vehicle, IKKi VII (2 μM), and small molecules (at indicated concentration) for 1 h, followed by the stimulation with 1 μg/ml of LPS. Supernatant was collected 24 h later for ELISA analysis. IL-6 concentration was measured using a mouse IL-6 ELISA kit (BD) according to the manufacturer’s instructions.

HEK293 cells = details: Fig 2D; 100 μM, 24 h
Description: (A) HEK293 cells stably expressing NF-κB luciferase reporter were pretreated with indicated small molecules at 100 μM for 30 min, followed by stimulation with TNF-α (10 ng/ml) for 3 h. Luciferase activity was normalized to untreated stimulated control cells. […] (B) The dose-dependent response of ZINC12909780 was tested by NF-κB luciferase assay in HEK293 cells. Three independent experiments were performed, and data shown represent mean +/− SD. […] (D) HEK293 cells were cultured in the presence of 100 μM of indicated derivatives for 24 h, and cell survival was determined by MTT assay. Cell viability was calculated by normalizing to untreated cells. (E) Dose-dependent inhibitory effects were determined for ZINC5 at 0, 25, 50, and 100 μM by using NF-κB luciferase assay. (F) HEK293 were cultivated in the presence of ZINC5 at listed concentrations for 24 h, and cell survival was assessed by MTT assay. Data represent the mean +/− SD from 4–5 independent experiments. *P < 0.05; **P < 0.01; ***P < 0.001. Underlying data can be found in S1 Data. HEK293, human embryonic kidney 293 cells; MTT, 3-(4,5-dimethylthiazol-2-yl)-2,5-dephenyltetrazolium bromide colormetric assay for assessing cell metabolic activity; NF-κB, nuclear factor κB; TNF-α; tumor necrosis factor α; SD, standard deviation.
HEK293 cells were grown in a 96-well plate at 3 × 10^4 cells/well in triplicate and treated with DMSO or listed small molecules at indicated concentrations for 24 h. Cell survival was determined by adding 20 μl of 5 mg/ml MTT (thiazolyl blue tetrazolium bromide) to each well, followed by incubation in 37 °C for 3 h. Media were removed, and purple formazan was dissolved in 100 uL of DMSO. Absorbance was measured at 590 nm on a microplate reader (PerkinElmer, Waltham, MA). Cell viability was calculated by normalizing values to untreated controls.

Compound: O=C(c1ccc(Nc2nccc(-c3cc4ccccc4s3)n2)cc1)N1CCC(N2CCCC2)CC1 [IKKi VII, reference compound]
- NF-κB luciferase activity normalized to vehicle (NF-κB activation): lowered NF-κB activity robustly
- iNOS mRNA expression (qRT-PCR) (NF-κB target genes): failed to down-regulate iNOS expression
- COX2 mRNA expression (qRT-PCR) (NF-κB target genes; listed as ikki VII): 169.382 and 169.611 and 190.029
- IL6 mRNA expression (qRT-PCR) (NF-κB target genes; listed as ikki VII): 61.5373 and 59.8482 and 47.3662
- IL-1b mRNA expression (qRT-PCR) (NF-κB target genes; listed as ikki VII): 67.7567 and 72.7507 and 75.5037
- TNFa mRNA expression (qRT-PCR) (NF-κB target genes; listed as ikki VII): 61.1388 and 68.3653 and 68.6282
- iNOS mRNA expression (qRT-PCR) (NF-κB target genes; listed as ikki VII): 24.1042 and 20.2843 and 19.9052
- ikBa mRNA expression (qRT-PCR) (NF-κB target genes; listed as ikki VII): 8.329 and 8.125 and 9.136
- mIL-6 in supernatant (ELISA) (IL-6 production): 0 ng/mL

Compound: O=C(COC(=O)c1ncc(Cl)c(Cl)c1Cl)Nc1ccc(Cl)cn1 [ZINC1]
- NF-κB luciferase activity normalized to vehicle (NF-κB activation): lowered NF-κB activity robustly

Compound: O=C(COC(=O)c1nc(Cl)ccc1Cl)Nc1ncc(Cl)cc1Cl [ZINC2]
- NF-κB luciferase activity normalized to vehicle (NF-κB activation): 87.9 and 94.94 and 107.72 and 95.11 and 110.04

Compound: O=C(COC(=O)c1nc(Cl)ccc1Cl)Nc1ccc(Cl)cn1 [ZINC3]
- NF-κB luciferase activity normalized to vehicle (NF-κB activation): 111.63 and 103.8 and 115.96 and 89.11 and 115.8
- Cell viability normalized to untreated cells (MTT) (HEK293 cells): 97 and 81 and 75

Compound: O=C(COC(=O)c1ccc2ccccc2c1)Nc1ncc(C(F)(F)F)cc1Cl [ZINC4]
- NF-κB luciferase activity normalized to vehicle (NF-κB activation): 99.2 and 99.51 and 98.62 and 84.84 and 111.34
- Cell viability normalized to untreated cells (MTT) (HEK293 cells): 62 and 80 and 74 and 70

Compound: O=C(COC(=O)c1cccnc1Cl)Nc1ncc(Cl)cc1Cl [ZINC6]
- NF-κB luciferase activity normalized to vehicle (NF-κB activation): 114.53 and 96.57 and 113.68 and 101.67 and 104.3
- Cell viability normalized to untreated cells (MTT) (HEK293 cells): 90 and 71 and 78 and 92

Compound: O=C(COC(=O)c1c2ccccc2cc2ccccc12)Nc1ncc(C(F)(F)F)cc1Cl [ZINC7]
- NF-κB luciferase activity normalized to vehicle (NF-κB activation): 99.14 and 98.45 and 107.93 and 94.89
- Cell viability normalized to untreated cells (MTT) (HEK293 cells): 73 and 51 and 70 and 69

Compound: O=C(COC(=O)c1cccc2ccccc12)Nc1ncc(C(F)(F)F)cc1Cl [ZINC8]
- NF-κB luciferase activity normalized to vehicle (NF-κB activation): 56.26 and 53.09 and 63.7 and 43.79 and 59.31
- NF-κB luciferase activity normalized to vehicle (NF-κB activation; listed as Zinc8): lowered NF-κB activity robustly
- Cell viability normalized to untreated cells (MTT) (HEK293 cells): 51 and 82 and 57 and 61

Compound: O=C(COC(=O)Cc1ccccc1)Nc1ncc(Cl)cc1Cl [ZINC9]
- NF-κB luciferase activity normalized to vehicle (NF-κB activation): 67.06 and 59.84 and 88.3 and 70.04 and 84.32
- NF-κB luciferase activity normalized to vehicle (NF-κB activation; listed as Zinc9): lowered NF-κB activity robustly
- Cell viability normalized to untreated cells (MTT) (HEK293 cells): 92 and 86 and 88

Compound: O=C(COC(=O)c1ccccn1)Nc1ncc(C(F)(F)F)cc1Cl [ZINC10]
- NF-κB luciferase activity normalized to vehicle (NF-κB activation): 108.77 and 101.36 and 116.46 and 94.96 and 126.1
- Cell viability normalized to untreated cells (MTT) (HEK293 cells): 89 and 65 and 84 and 79

Compound: O=C(COC(=O)c1ccc(Cl)nc1)Nc1ncc(Cl)cc1Cl [ZINC11]
- NF-κB luciferase activity normalized to vehicle (NF-κB activation): 90.11 and 74.66 and 111.57 and 92.82 and 119.55
- Cell viability normalized to untreated cells (MTT) (HEK293 cells): 77 and 62 and 78 and 72

Compound: O=C(COC(=O)c1ccc(F)cc1F)Nc1ccc(Cl)cn1 [ZINC12]
- NF-κB luciferase activity normalized to vehicle (NF-κB activation): 95.61 and 79.06 and 109.79 and 80.64 and 92.59
- Cell viability normalized to untreated cells (MTT) (HEK293 cells): 94 and 85 and 87

Compound: NC(=O)COC(=O)c1cccnc1Nc1ccccc1F [ZINC13]
- NF-κB luciferase activity normalized to vehicle (NF-κB activation): 100.33 and 91.05 and 121.31 and 95.5 and 122.97
- Cell viability normalized to untreated cells (MTT) (HEK293 cells): 82 and 81 and 84 and 90

Compound: O=C(COC(=O)c1cccc(F)c1)Nc1ccc(Cl)cn1 [ZINC14]
- NF-κB luciferase activity normalized to vehicle (NF-κB activation): 108.83 and 98.08 and 117.73 and 100.75 and 124.98
- Cell viability normalized to untreated cells (MTT) (HEK293 cells): 60 and 64 and 68 and 84

Compound: O=C(COC(=O)c1ccc(F)cc1)Nc1ccc(Cl)cn1 [ZINC15]
- NF-κB luciferase activity normalized to vehicle (NF-κB activation): 103.61 and 97.73 and 103.85 and 95.58 and 115.08
- Cell viability normalized to untreated cells (MTT) (HEK293 cells): 58 and 77 and 86

Compound: O=C(NN=C1CCN(Cc2ccccc2)CC1)[C@H]1C[C@@H]1c1ccccc1 [ZINC05682974]
- NF-κB luciferase activity normalized to untreated stimulated control (NF-κB activation): remained unchanged
- NF-κB luciferase activity normalized to untreated stimulated control (NF-κB activation; listed as ZINC05682947): 105.454 and 97.4199

Reference: article PMC6013238, “Development of novel NEMO-binding domain mimetics for inhibiting IKK/NF-κB activation” (PLoS Biology, 2018)
